In patent publication US20220062218A1, “COMPOSITIONS AND METHODS FOR TREATING DIABETES” (ENZYCHEM LIFESCIENCES, priority 2019, published 2022):
“Also recorded” adds a separate entry of the source.

Tested on: GLUT2
Experiment: Plasma membrane GLUT2 expression in high glucose-treated INS-1 cells, western blotting of membrane fractions
Type: cell-based, rat
Settings: pre-treated with 100 pg/mL of PLAG for 1 h, then 30 mM HG for indicated times
Description: To investigate the effect of PLAG on GLUT2 plasma membrane localization, membrane proteins were fractionated and analyzed by western blotting. INS-1 cells were pre-treated with 100 pg/mL of PLAG for lh, and then treated with 30 mM of HG for indicating times.
For membrane protein fractionation, we performed using the MemPER™ Plus Kit (Thermo Scientific, Waltham, Mass., USA) following the manufacturer's instructions. Proteins were separated on 12% sodium dodecyl sulfate-polyacrylamide gels and transferred to polyvinylidene difluoride membranes (EMD Millipore, Darmstadt, Germany) The membranes were blocked and incubated with primary antibodies to GLUT2 (bs-0351r, Bioss, Woburn, Mass., USA) and N+-K+ ATPase (#3010S, Cell Signaling Technology, Danvers, Mass., USA). After three washes in PBST, membranes were incubated with HRP-conjugated secondary antibodies (Enzo Life Sciences, Farmingdale, N.Y., USA) for 1 h at room temperature. Protein bands were detected using ECL reagent (Thermo Scientific) and then visualized on films.

CCCCC/C=C\C/C=C\CCCCCCCC(=O)OC(COC(C)=O)COC(=O)CCCCCCCCCCCCCCC (racemic) [PLAG, 1-palmitoyl-2-linoleoyl-3-acetyl-rac-glycerol]
GLUT2 expression in plasma membrane (time course): gradually decreased until 15 min, then recovered and returned to control levels at 60 min; also recorded: gradually decreased until 15min and then recovered and returned to control levels at 60 min
